# Measured values from PMC5078989, “Targeted inhibition of the COP9 signalosome for treatment of cancer” (Nature Communications, 2016).
# Tested on: panel of cancer cell lines
# Assay: Cell viability (CellTiter-Glo) dose-response across cancer cell line panel;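 further: after 72 h compound incubation with CellTiter-Glo ATP readout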
# Assay type: cell-based, human
# Conditions: Homo sapiens
# Text: Next, we explored the effect of CSN5 inhibition on the viability of cancer cells. To obtain a comprehensive picture, we generated dose–response curves with a CSN5 inhibitor across more than 500 cancer cell lines in a previously described standardized setting[47] (Supplementary Data 1).
# A standardized CellTiter-Glo Assay (Promega #G7570) based on the quantification of ATP was applied according to the manufacturer's protocol to measure the amount of viable cells in culture. In brief, cells were seeded into 384-well plates at optimal density for each cell line. After 4 h, compounds were added at different concentrations in growth medium and incubated for another 72 h in a humidifying chamber at 37 °C and 5% CO2. […] EC50 values were calculated from the plot of percentage of inhibition versus inhibitor concentration using the nonlinear regression analysis software Origin 7.5SR6 (OriginLab Corp.).
smiles,measurement,setting,value
NS(=O)(=O)OC[C@@H]1C[C@@H](n2ccc3c(N[C@H]4CCc5ccccc54)ncnc32)C[C@@H]1O [MLN4924],EC50,"HEC-251, HEC-251",8160 nM
same,EC50,HEC-265,20000 nM
same,EC50,HEL,190 nM
same,EC50,"HEL 92.1.7, HEL 92.1.7",94.8 nM
same,EC50,"HEY A8, Hey-A8",114 nM
same,EC50,"HL-60, HL-60",361 nM
same,EC50,HLC-1,981 nM
same,EC50,HLE,454 nM
same,EC50,HLF,739 nM
same,EC50,HMC-1-8,154 nM
same,EC50,HPAC,830 nM
same,EC50,"HPBALL, HPB-ALL",333 nM
same,EC50,"HRT-18, HRT-18",1860 nM
same,EC50,"HSC-2, HSC-2",146 nM
same,EC50,"HSC-3, HSC-3",292 nM
same,EC50,"HSC-4, HSC-4",268 nM
same,EC50,"HT-29, HT-29",2230 nM
same,EC50,"HT-1080, HT-1080",215 nM
same,EC50,Hep3B,2560 nM
same,EC50,Hep 3B2.1-7,4280 nM
same,EC50,Hs 294T,1860 nM
same,EC50,Hs 695T,719 nM
same,EC50,"Hs766T, Hs 766T",18800 nM
same,EC50,Hs 852.T,804 nM
same,EC50,Hs 936.T,202 nM
same,EC50,Hs 939.T,600 nM
same,EC50,Hs 944.T,898 nM
same,EC50,"HuH-6, HuH-6",4960 nM
same,EC50,"HuP-T4, HUP-T4",360 nM
same,EC50,"Huh-7, HuH-7",723 nM
same,EC50,"IGR-37, IGR-37",613 nM
same,EC50,"IGR-39, IGR-39",545 nM
same,EC50,"IGROV-1, IGROV1",399 nM
same,EC50,"IPC-298, IPC-298",716 nM
same,EC50,IST-MES2,421 nM
same,EC50,Ishikawa,213 nM
same,EC50,"J82, J82",1650 nM
same,EC50,"JHH7, JHH-7",12200 nM
same,EC50,"JHH-4, JHH-4",594 nM
same,EC50,JHOM-1,1300 nM
same,EC50,JHOS-2,274 nM
same,EC50,JHUEM-2,952 nM
same,EC50,JHUEM-3,> 30000 nM
same,EC50,"JIMT-1, JIMT-1",8670 nM
same,EC50,JL-1,2290 nM
same,EC50,JU77,304 nM
same,EC50,"JVM-2, JVM-2",83.5 nM
same,EC50,K029AX,1740 nM
same,EC50,"KARPAS-422, KARPAS-422",654 nM
same,EC50,KATO III,711 nM
same,EC50,"KBM-7, KBM-7",106 nM
same,EC50,KCI-MOH1,2000 nM
same,EC50,"KE-97, KE-97",210 nM
same,EC50,KLE,897 nM
same,EC50,"KM12, KM12",1570 nM
same,EC50,"KMM-1, KMM-1",462 nM
same,EC50,"KMRC-1, KMRC-1",435 nM
same,EC50,KMRC-20,1520 nM
same,EC50,"KMS-11, KMS-11",426 nM
same,EC50,"KNS-42, KNS-42",282 nM
same,EC50,KNS-60,486 nM
same,EC50,"KNS-62, KNS-62",398 nM
same,EC50,KP-1N,15600 nM
same,EC50,KP-1NL,13600 nM
same,EC50,KP-2,4050 nM
same,EC50,"KP-4, KP4",828 nM
same,EC50,KS-1,336 nM
same,EC50,"KU-19-19, KU-19-19",922 nM
same,EC50,KURAMOCHI,1250 nM
same,EC50,"KYSE-30, KYSE-30",356 nM
same,EC50,"KYSE-70, KYSE-70",1060 nM
same,EC50,"KYSE-150, KYSE-150",725 nM
same,EC50,"KYSE-180, KYSE-180",1290 nM
same,EC50,"Kasumi-3, Kasumi3",292 nM
same,EC50,Kasumi-6,286 nM
same,EC50,L3.3,120 nM
same,EC50,"L-363, L-363",139 nM
same,EC50,"L-428, L-428",3080 nM
same,EC50,LC-1/sq-SF,926 nM
same,EC50,LC-1F,586 nM
same,EC50,"LC-2-ad, LC2/ad",540 nM
same,EC50,LCLC-103H,573 nM
same,EC50,LIM1899,2310 nM
same,EC50,LIM2099,440 nM
same,EC50,LIM2405,305 nM
same,EC50,LIM2550,53.5 nM
same,EC50,LMSU,100 nM
same,EC50,"LN-18, LN-18",178 nM
same,EC50,LO68,3750 nM
same,EC50,"LOU-NH91, LOU-NH91",296 nM
same,EC50,LOX IMVI,262 nM
same,EC50,"LP-1, LP-1",536 nM
same,EC50,"LS180, LS 180",175 nM
same,EC50,"LUDLU-1, LUDLU-1",2510 nM
same,EC50,"Li-7, Li-7",827 nM
same,EC50,"Lu-65, LU65",922 nM
same,EC50,"Lu-99, LU99",98.5 nM
same,EC50,M-07e,1020 nM
same,EC50,MCAS,529 nM
same,EC50,MCC13,4250 nM
same,EC50,MCC14/2,36.1 nM
same,EC50,MCC26,652 nM
same,EC50,MDA-MB-134-VI,678 nM
same,EC50,"MDA-MB-157, MDA-MB-157",8450 nM
same,EC50,MDA-MB-175-VII,448 nM
same,EC50,"MDA-MB-231, MDA-MB-231",422 nM
same,EC50,"MDA-MB-415, MDA-MB-415",> 30000 nM
same,EC50,MDA-MB-435S,3550 nM
same,EC50,"MDA-MB-436, MDA-MB-436",1430 nM
same,EC50,"MDA-MB-453, MDA-MB-453",106 nM
same,EC50,"MDA-MB-468, MDA-MB-468",396 nM
same,EC50,"MDST8, MDST8",311 nM
same,EC50,"ME-180, ME180",177 nM
same,EC50,"MEC1, MEC-1",302 nM
same,EC50,MEL-HO,873 nM
same,EC50,MEL-JUSO,364 nM
same,EC50,MES-SA,932 nM
same,EC50,"MFE-280, MFE-280",364 nM
same,EC50,"MFE-296, MFE-296",109 nM
same,EC50,MFE-319,3660 nM
same,EC50,"MFM-223, MFM223",105 nM
same,EC50,"MG-63, MG-63",261 nM
same,EC50,"MIA PaCa-2, MIA PaCa-2",518 nM
same,EC50,MINO,13.1 nM
same,EC50,"MKN-1, MKN1",1020 nM
same,EC50,"MKN-45, MKN-45",363 nM
same,EC50,"ML-2, ML-2",57.1 nM
same,EC50,MM127,325 nM
same,EC50,MM138,251 nM
same,EC50,MM170,334 nM
same,EC50,MM253,35.5 nM
same,EC50,MM370,273 nM
same,EC50,MM383,281 nM
same,EC50,MM386,950 nM
same,EC50,MM415,675 nM
same,EC50,MM426,754 nM
same,EC50,MM466,2560 nM
same,EC50,"MM473, MM473",589 nM
same,EC50,MM485,820 nM
same,EC50,MM537,84.6 nM
same,EC50,MM576,511 nM
same,EC50,MM603,415 nM
same,EC50,MOG-G-CCM,2350 nM
same,EC50,"MOLM-13, MOLM-13",46.3 nM
same,EC50,"MOLP-8, MOLP-8",132 nM
